Assay results reported in patent US20110313672A1, “CELLULAR ANTIOXIDANT ACTIVITY (CAA) ASSAY” (CORNELL UNIVERSITY, priority 2007, published 2011).
Values joined by “and” are separate entries in the source; they are usually repeats but may differ in a detail not shown here. Equal entries are not always repeated. “Also recorded” adds a separate entry of the source. Where two headings read alike, the source gives them in different places.

Legend:
HepG2 cells [1] = assay: Cellular antioxidant activity (CAA) assay: inhibition of peroxyl radical-induced DCFH oxidation; assay type: cell-based, human; settings: for CAA value / percent of the antioxidant activity of quercetin in the CAA assay: Example 1; for CAA value: pure compounds, EC50 converted to quercetin equivalents; for percent of the antioxidant activity of quercetin in the CAA assay: summary statement
Description: Cells (e.g., human hepatocellular carcinoma cells; HepG2) are seeded at a density of e.g., 6×10^4/well on a 96-well microplate in 100 μL growth medium/well. It is preferred that only the inside wells of e.g., a 96-well microplate are used for the assay, since the outer wells have increased variation compared to that of the inner wells. Twenty-four hours after seeding the growth medium is removed and the wells are washed with PBS. Triplicate wells are treated for 1 h with 100 μL of a test compound (e.g., pure phytochemical compounds or fruit extracts) plus 25 μM DCFH-DA dissolved in treatment medium.
600 μM ABAP is then applied to the cells in 100 μL HBSS and the 96-well microplate is placed into a plate reader e.g., Fluoroskan Ascent FL plate-reader (ThermoLabsystems, Franklin, Mass.) at 37° C. Emission at 538 nm is measured with excitation at 485 nm, for example every 5 min for 1 h. Each plate should include triplicate control and blank wells: control wells contain cells treated with DCFH-DA and oxidant; blank wells contain cells treated with dye and HBSS without oxidant.
A test compound is assayed in multiple wells of e.g., a 96-well cell culture plate. Some wells are washed with 100 μL of phosphate-buffered saline (PBS) prior to the addition of ABAP, while other wells were not washed prior to the addition of ABAP. It was noted that the measured antioxidant activity of some fruit extracts (e.g., blueberries) was different when a PBS wash was used compared to when there was no PBS wash (see Table 2; FIGS. 3 and 4). This is likely due to non-specific binding of certain antioxidant compounds to the outer membrane, or a reduced uptake of the compound, thus the ratio of antioxidant activity values obtained with a PBS wash compared to a non-PBS wash indicates the bioavailability of the test compound. In order to accurately measure the intracellular antioxidant activity of a test compound, a PBS wash prior to the addition of a peroxyl initiator (e.g, ABAP) is necessary. The values obtained for cells assayed using a PBS wash should be compared to values obtained for the same cells assayed without a PBS wash. One of skill in the art can plan and perform experiments on a test compound in the presence and absence of a PBS wash, in order to accurately assess the intracellular antioxidant capacity of the test compound.
After blank subtraction from the fluorescence readings, the area under the curve of fluorescence versus time is integrated to calculate the cellular antioxidant activity (CAA) value at each concentration of pure phytochemical compound or fruit extract as follows:
where ∫SA is the integrated area under the sample fluorescence versus time curve and ∫CA is the integrated area from the control curve. The median effective dose (EC50) was determined for the pure phytochemical compounds and fruit extracts from the median effect plot of log (fa/fu) vs. log (dose), where fa is the fraction affected and fu is the fraction unaffected by the treatment. To quantify intra-experimental variation, the EC50 values are stated as mean±SD for triplicate sets of data obtained from the same experiment. Inter-experimental variation is obtained for some representative pure phytochemical compounds and fruit extracts by averaging the fluorescence values from triplicate wells in each trial to obtain one EC50 value per experiment and calculating the mean±SD for at least four trials. In each experiment, a standard is used, for example quecetin, thus permitting the cellular antioxidant activities for a test compounds to be expressed as μmol quercetin equivalents (QE)/100 μmol compound. Fruit extracts are expressed as μmol QE/100 g fruit. In order to compare the antioxidant quality of different fruits, cellular antioxidant activity (CAA) is also calculated as μmol QE/100 μmol total phenolics.
Human hepatocellular carcinoma HepG2 cells were seeded at a density of 6×10^4/well on a 96-well microplate in 100 μL growth medium/well. […]

HepG2 cells [2] = assay: in vitro; settings: human, 24 h
Description: (§1) Briefly, HepG2 cells are seeded at 4×10^4/well on a 96-well plate in 100 μL growth medium and incubated for 24 h at 37° C. The medium is removed and the cells are washed with PBS. Treatments of fruit extracts or antioxidant compounds in 100 μL treatment medium (Williams' Medium E supplemented with 2 mM L-glutamine and 10 mM Hepes) are applied to the cells and the plates are incubated at 37° C. for 24 h. The treatment medium is removed and the cells are washed with PBS. A volume of 50 μL/well methylene blue staining solution (98% HBSS, 0.67% glutaraldehyde, 0.6% methylene blue) is applied to each well and the plate is incubated at 37° C. for 1 h.
(§2) Excess dye is removed by immersing the plate in fresh deionized water until the water appears clear. The excess water should be tapped out of the wells and the plate allowed to air-dry briefly before addition of 100 μL elution solution (49% PBS, 50% ethanol, 1% acetic acid) to each well. The microplate is then placed on a bench-top shaker for 20 minutes to allow uniform elution. The absorbance is read at 570 nm with blank subtraction using, for example a MRX II DYNEX spectrophotometer (DYNEX Inc., Chantilly, Va.). Concentrations of pure compounds or fruit extracts that decrease the absorbance by more than 10% when compared to the control are considered to be cytotoxic.
(§3) Cytotoxicity was measured using the method of Oliver et al. (31) with modifications by our laboratory (32). […] The medium was removed and the cells were washed with PBS. Treatments of fruit extracts or antioxidant compounds in 100 μL treatment medium (Williams' Medium E supplemented with 2 mM L-glutamine and 10 mM Hepes) were applied to the cells and the plates were incubated at 37° C. for 24 h. The treatment medium was removed and the cells were washed with PBS. A volume of 50 μL/well methylene blue staining solution (98% HBSS, 0.67% glutaraldehyde, 0.6% methylene blue) was applied to each well and the plate was incubated at 37° C. for 1 h. The dye was removed and the plate was immersed in fresh deionized water three times, or until the water was clear. The water was tapped out of the wells and the plate was allowed to air-dry briefly before 100 μL elution solution (49% PBS, 50% ethanol, 1% acetic acid) was added to each well. The microplate was placed on a bench-top shaker for 20 minutes to allow uniform elution. The absorbance was read at 570 nm with blank subtraction using the MRX II DYNEX spectrophotometer (DYNEX Inc., Chantilly, Va.). Concentrations of pure compounds or fruit extracts that decreased the absorbance by more than 10% when compared to the control were considered to be cytotoxic.
(§4) The median cytotoxic concentration (CC50) was calculated for each fruit.
(§5) Briefly, HepG2 cells were seeded at 4×10^4/well on a 96-well plate in 100 μL growth medium and incubated for 24 h at 37° C. The medium was removed, and the cells were washed with PBS. Flavonoids in 100 μL growth medium were applied to the cells, and the plates were incubated at 37° C. for 24 h. The medium was removed, and the cells were washed with PBS before a volume of 50 μL/well methylene blue staining solution (98% HBSS, 0.67% glutaraldehyde, 0.6% methylene blue) was applied to each well, and the plate was incubated at 37° C. for 1 h. The dye was removed, and the plate was immersed in fresh deionized water until the water was clear. The water was tapped out of the wells, and the plate was allowed to air-dry briefly before 100 μL of elution solution (49% PBS, 50% ethanol, 1% acetic acid) was added to each well. The microplate was placed on a benchtop shaker for 20 min to allow uniform
(§6) elution. The absorbance was read at 570 nm with blank subtraction using the MRX II Dynex spectrophotometer (Dynex Inc., Chantilly, Va.). The median cytotoxic concentration (CC50) was calculated for each flavonoid.

in vitro = settings: human
Description: as §1, §2, §3, §4, §5, §6

[3] = Oxygen radical absorbance capacity (ORAC) assay; settings: Example 3; flavonoids; mean ± SD, n ≧ 3
Description: The peroxyl radical scavenging efficacy of selected fruits was measured using the ORAC assay (Prior, R. L., et al (2003) J. Agric. Food Chem. 51:3273-3279). Briefly, 20 μL of blank, Trolox standard, or fruit extracts in 75 mM potassium phosphate buffer, pH 7.4 (working buffer), was added to triplicate wells in a black, clear-bottom, 96-well microplate. The triplicate samples were distributed throughout the microplate and were not placed side-by-side, to avoid any effects on readings due to location. In addition, no outside wells were used, as use of those wells results in greater variation. A volume of 200 μL of 0.96 μM fluorescein in working buffer was added to each well and incubated at 37° C. for 20 min, with intermittent shaking, before the addition of 20 μL of freshly prepared 119 mM ABAP in working buffer using a 12-channel pipetter. The microplate was immediately inserted into a Fluoroskan Ascent FL plate reader (ThermoLabsystems) at 37° C. The decay of fluorescence at 538 nm was measured with excitation at 485 nm every 4.5 min for 2.5 h. The areas under the fluorescence versus time curve for the samples minus the area under the curve for the blank were calculated and compared to a standard curve of the areas under the curve for 6.25, 12.5, 25, and 50 μM Trolox standards minus the area under the curve for blank. ORAC values were expressed as mean micromoles of Trolox equivalents (TE) per 100 g of fruit±SD for triplicate data from one experiment.
ORAC measurements were performed as described herein in Example 2.

[4] = Homo sapiens, HepG2, Example 1, Table 1, PBS wash, pure phytochemical compounds, mean ± SD, n=3, read-out: EC50 for inhibition of peroxyl radical-induced DCFH oxidation
[5] = Homo sapiens, HepG2, Example 1, Table 1, no PBS wash, pure phytochemical compounds, mean ± SD, n=3, read-out: EC50 for inhibition of peroxyl radical-induced DCFH oxidation
[6] = CAA assay, either protocol or protocol not specified
[7] = Example 3, Table 7, PBS wash, flavonoids, mean ± SD, n=3
[8] = Example 3, Table 7, no PBS wash, flavonoids, mean ± SD, n=3

| Molecule | CAA value (HepG2 cells [1]; no PBS wash) | percent of the antioxidant activity of quercetin in the CAA assay (HepG2 cells [1]) | EC50 (HepG2 cells [1]; [4]) | EC50 (HepG2 cells [1]; [5]) | Cytotoxicity (cytotoxic concentration) (HepG2 cells [2]) | cellular antioxidant activity, result in words (HepG2 cells [1]; [6]) | EC50 (HepG2 cells [1]; [7]) | EC50 (HepG2 cells [1]; [8]) | ORAC [3] | also measured |
| --- | --- | --- | --- | --- | --- | --- | --- | --- | --- | --- |
| O=C1O[C@H]([C@@H](O)CO)C(O)=C1O [Ascorbic acid, ascorbic acid] | 8.84±1.18 μmol QE/100 μmol | less than ten percent | > 500 µM | 67.5 ± 9.4 µM | >500 µM |  |  |  |  | cellular antioxidant activity, result in words (HepG2 cells [1]; PBS wash protocol): low |
| O=C(O)/C=C/c1ccc(O)c(O)c1 [Caffeic acid, caffeic acid] | 5.59±0.70 μmol QE/100 μmol | less than ten percent | 525 ± 38 µM | 95.3 ± 15.3 µM | >500 µM |  |  |  |  |  |
| COc1cc(/C=C/C(=O)O)ccc1O [Ferulic acid, ferulic acid] |  |  | > 500 µM | > 250 µM | >500 µM |  |  |  |  | cellular antioxidant activity, result in words (HepG2 cells [1]; no PBS wash protocol): low activity within the doses tested |
| O=C(O)c1cc(O)c(O)c(O)c1 [Gallic acid] | 9.08±0.95 μmol QE/100 μmol | less than ten percent | 335 ± 26 µM | 65.4 ± 7.3 µM | >500 µM |  |  |  |  | EC50 (HepG2 cells [1]; Homo sapiens, HepG2, Table 2, no PBS wash, mean ± SD over the trials, read-out: Interexperimental EC50): 64.3 ± 10.7 µM; EC50 (HepG2 cells [1]; Homo sapiens, HepG2, Table 2, no PBS wash, one line per trial (trials 1-5), n=3, read-out: Intraexperimental EC50): 65.4 ± 7.3 µM; EC50 (HepG2 cells [1]; Homo sapiens, HepG2, Table 3, PBS wash, mean ± SD over the trials, read-out: Interexperimental EC50): 318 ± 36 µM; EC50 (HepG2 cells [1]; Homo sapiens, HepG2, Table 3, PBS wash, one line per trial (trials 1-5), n=3, read-out: Intraexperimental EC50): 289 ± 12 µM |
| O=c1cc(-c2ccc(O)cc2)oc2cc(O)cc(O)c12 [apigenin] |  |  |  |  |  | no cellular antioxidant activity; also recorded: no CAA | no activity | no activity | 10.7 ± 1.5 bc μmol of TE/μmol | CC50 at 24 h (in vitro): > 80 µM |
| O=c1cc(-c2ccccc2)oc2cc(O)cc(O)c12 [chrysin] |  |  |  |  |  | no activity | no activity | no activity |  | CC50 at 24 h (in vitro): > 200 µM |
| O=c1c(-c2ccc(O)cc2)coc2cc(O)ccc12 [daidzein] |  |  |  |  |  | no cellular antioxidant activity | no activity | no activity | 8.52 ± 2.11 cde μmol of TE/μmol | CC50 at 24 h (in vitro; HepG2 cells): > 100 µM |
| C[C@@H]1O[C@@H](OC[C@H]2O[C@@H](Oc3c(-c4ccc(O)c(O)c4)oc4cc(O)cc(O)c4c3=O)[C@H](O)[C@@H](O)[C@@H]2O)[C@H](O)[C@H](O)[C@H]1O [rutin] |  |  |  |  |  | no activity | no activity | no activity |  | CC50 at 24 h (in vitro; HepG2 cells): > 200 µM |
| (+)-catechin | 2.03±0.24 μmol QE/100 μmol | less than ten percent |  |  |  | low or no cellular antioxidant activity; also recorded: low CAA |  |  | 12.4±4.0 μmol of TE/μmol and 12.4 ± 4.0 ab μmol of TE/μmol | EC50 (HepG2 cells [1]; Example 1, Table 1, PBS wash, pure phytochemical compounds, mean ± SD, n=3, read-out: EC50 for inhibition of peroxyl radical-induced DCFH oxidation): > 500 µM; EC50 (HepG2 cells [1]; Example 1, Table 1, no PBS wash, pure phytochemical compounds, mean ± SD, n=3, read-out: EC50 for inhibition of peroxyl radical-induced DCFH oxidation): 292 ± 32 µM; EC50 (HepG2 cells [1]; Example 3, Table 7, PBS wash, flavonoids, mean ± SD, n=3, read-out: EC50): > 800 µM; CAA (HepG2 cells [1]; Example 3, Table 7, no PBS wash): 2.5 ± 0.1 μmol of QE/100 μmol; EC50 (HepG2 cells [1]; Example 3, text, no PBS wash, read-out: EC50): 360 ± 17 µM; cellular antioxidant activity, result in words (HepG2 cells [1]; PBS wash protocol): very low, unquantifiable, activity; cellular antioxidant activity, result in words (HepG2 cells [1]; PBS wash protocol, listed as catechin): low and low activity at the concentrations tested |
